Laboratory results as given in PubChem BioAssay AID2060485 (Molecular Pharmacology Branch, DTP, NCI, 2025).

System: A375 multi-cell spheroids with HUVEC/MSC, viability
Assay: Anticancer human tumor A375 cell line growth inhibition [GQUAD];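 note: spheroids exposed to compounds for seven days before readout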
Settings: for IC50: curve of first compound; for viability, T/C: stronger effect = lower value
Source text: DNA G-quadruplex Stabilizer Agents in Combinations in Complex Spheroids
A high-throughput screen of multi-cell type tumor spheroids was designed to identify active combinations of DNA G-quadruplex stabilizer agents and targeted small molecules. Complex spheroids include a stromal component modeled by human endothelial cells (HUVEC) and fibroblasts modeled by human mesenchymal stem cells (MSCs). The concentration ranges selected for each drug and investigational agent were based upon clinically achievable concentrations if the clinical Cmax of the agent was known.
Compounds. The drugs and investigational agents: pidnarulex (CX-5461; NSC782164), APTO-253 (NSC789042), BRACO-19 (NSC847499), peposertib (NSC802822), ceralasertib (NSC780249), elimusertib (NSC800525), camonsertib (NSC841442), AZD-1390 (NSC803789), olaparib (NSC753686), talazoparib (NSC767125), ART-558 (NSC835418), sotorasib (NSC818433), MRTX-1133 (NSC836407), SN-38 (NSC673596), topotecan (NSC609699), etoposide (NSC141540), doxorubicin (NSC123127), gemcitabine (NSC613327), 5-fluorouracil (NSC19893), paclitaxel (NSC125973), vemurafenib (NSC761431), panobinostat (NSC761190), R-306465 (JNJ-16241199; NSC773264), adavosertib (NSC754352), TP-3654 (NSC805149), carboplatin (NSC241240), KSQ-4279 (NSC840948), and staurosporine (NSC755774) were obtained from the National Cancer Institute (NCI) Developmental Therapeutics Program Chemical Repository (34). The FDA-approved anticancer drug set is available from the NCI Developmental Therapeutics Program. […] The stock solutions were prepared in dimethyl sulfoxide (DMSO, Sigma-Aldrich, St. Louis, MO, cat. D2650) at 800-fold the tested concentration and stored at -70 degrees C prior to their use. All drugs and investigational agents were tested over a range starting from a high concentration at or near the clinical Cmax and decreasing in half-log increments. If the clinical Cmax for an agent had not been determined, the highest concentration tested was 10 microM.
2.3 Cell Culture. All cells were maintained in an incubator at 37 degrees C and 5% CO2 with 95% humidity. The PDC lines were cultured according to standard operating procedures established by the NCI PDMR. All PDCs were thawed and cultured in Matrigel-coated flasks prepared with a working solution of 1X Ham's F-12 nutrient mix, without supplementation (Invitrogen, cat. 11765054), 100 U/mL penicillin-streptomycin (Invitrogen, cat. 15140122), and 2.5% Matrigel (Corning Inc., cat. 354248) for the first three passages. The 857933-349-R-J2-PDC line was cultured in 6C/Colon 1B media, which includes advanced DMEM/F-12 (Thermo Fisher Scientific, cat. 12634028), 10 mM HEPES (Thermo Fisher Scientific, cat. 15630080), 1X GlutaMAX supplement (Thermo Fisher Scientific, cat. 35050061), 0.1 mg/mL primocin (InvivoGen, cat. ant-pm-2), 10% defined fetal bovine serum, heat inactivated (HyClone Laboratories Inc., cat. SH30070.03HI), 50% L-WRN conditioned media (ATCC, cat. CRL-3276), 1.25 mM N-Acetyl-L-cysteine (Sigma-Aldrich, cat. A9165), 10 mM nicotinamide (Sigma-Aldrich, cat. N0636), 1X B-27 supplement (Thermo Fisher Scientific, cat. 17504044), 1X N-2 supplement (Thermo Fisher Scientific, cat. 17502048), 10 microM Y-27632 dihydrochloride (Tocris Bioscience, cat. 1254), and 50 ng/mL human EGF recombinant protein (Thermo Fisher Scientific, cat. PHG0311). The 485176-168-R4-J1-PDC line was cultured in Panc media, which includes all 6C/Colon 1B media components plus 100 ng/mL human FGF-10 (Thermo Fisher Scientific, cat. 100-26), 500 nM SB-431542 (Selleckchem, cat. S1067), and gastrin (Tocris, cat. 3006).
[…]

[1] = second compound 0.0316 µM, first compound 0.0316 µM
[2] = second compound 0.0316 µM, first compound 0.1 µM
[3] = second compound 0.0316 µM, first compound 0.316 µM
[4] = second compound 0.0316 µM, first compound 1 µM
[5] = second compound 0.0316 µM, first compound 3.16 µM
[6] = second compound 0.0316 µM, first compound 10 µM
[7] = second compound 0.1 µM, first compound 0.0316 µM
[8] = second compound 0.1 µM, first compound 0.1 µM
[9] = second compound 0.1 µM, first compound 0.316 µM
[10] = second compound 0.1 µM, first compound 1 µM
[11] = second compound 0.1 µM, first compound 3.16 µM
[12] = second compound 0.1 µM, first compound 10 µM
[13] = second compound 0.316 µM, first compound 0.0316 µM
[14] = second compound 0.316 µM, first compound 0.1 µM
[15] = second compound 0.316 µM, first compound 0.316 µM
[16] = second compound 0.316 µM, first compound 1 µM
[17] = second compound 0.316 µM, first compound 3.16 µM
[18] = second compound 0.316 µM, first compound 10 µM
[19] = second compound 1 µM, first compound 0.0316 µM
[20] = second compound 1 µM, first compound 0.1 µM
[21] = second compound 1 µM, first compound 0.316 µM
[22] = second compound 1 µM, first compound 1 µM
[23] = second compound 1 µM, first compound 3.16 µM
[24] = second compound 1 µM, first compound 10 µM
[25] = second compound 3.16 µM, first compound 0.0316 µM
[26] = second compound 3.16 µM, first compound 0.1 µM
[27] = second compound 3.16 µM, first compound 0.316 µM
[28] = second compound 3.16 µM, first compound 1 µM
[29] = second compound 3.16 µM, first compound 3.16 µM
[30] = second compound 3.16 µM, first compound 10 µM
[31] = second compound 10 µM, first compound 0.0316 µM
[32] = second compound 10 µM, first compound 0.1 µM
[33] = second compound 10 µM, first compound 0.316 µM
[34] = second compound 10 µM, first compound 1 µM
[35] = second compound 10 µM, first compound 3.16 µM
[36] = second compound 10 µM, first compound 10 µM

CC1COCCN1c1cc(C2(O)CC3CCC(C2)O3)c2cnn(-c3ccn[nH]3)c2n1 (stereo unspecified) + Cc1cnc(CNC(=O)c2c(=O)c3ccc(N4CCCN(C)CC4)nc3n3c2sc2ccccc23)cn1
IC50 (second compound 0.0316 µM): 0.127 µM | IC50 (second compound 0.1 µM): 0.0575 µM | IC50 (second compound 0.316 µM): < 0.0316 µM | IC50 (second compound 1 µM): < 0.0316 µM | IC50 (second compound 3.16 µM): < 0.0316 µM | IC50 (second compound 10 µM): < 0.0316 µM | viability, T/C [1]: 86.1% | viability, T/C [2]: 51.7% | viability, T/C [3]: 38.3% | viability, T/C [4]: 15.7% | viability, T/C [5]: 10.2% | viability, T/C [6]: 7.77% | viability, T/C [7]: 57% | viability, T/C [8]: 42.5% | viability, T/C [9]: 31.2% | viability, T/C [10]: 15.2% | viability, T/C [11]: 11% | viability, T/C [12]: 7.11% | viability, T/C [13]: 38% | viability, T/C [14]: 29.7% | viability, T/C [15]: 28.9% | viability, T/C [16]: 19.1% | viability, T/C [17]: 10.3% | viability, T/C [18]: 7.26% | viability, T/C [19]: 40.9% | viability, T/C [20]: 32% | viability, T/C [21]: 27.3% | viability, T/C [22]: 14.4% | viability, T/C [23]: 10.5% | viability, T/C [24]: 7.81% | viability, T/C [25]: 31.9% | viability, T/C [26]: 27.4% | viability, T/C [27]: 23.4% | viability, T/C [28]: 14.3% | viability, T/C [29]: 10.1% | viability, T/C [30]: 5.41% | viability, T/C [31]: 24.7% | viability, T/C [32]: 22.5% | viability, T/C [33]: 21.8% | viability, T/C [34]: 13.7% | viability, T/C [35]: 9.6% | viability, T/C [36]: 4.53%

Cc1cccc(N(C)C(=O)C2C(O)CCN2c2nc(C)cc(C(F)(F)F)c2C#N)c1 (stereo unspecified) + Cc1cnc(CNC(=O)c2c(=O)c3ccc(N4CCCN(C)CC4)nc3n3c2sc2ccccc23)cn1
IC50 (second compound 0.0316 µM): > 10 µM | IC50 (second compound 0.1 µM): > 10 µM | IC50 (second compound 0.316 µM): > 10 µM | IC50 (second compound 1 µM): < 0.0316 µM | IC50 (second compound 3.16 µM): < 0.0316 µM | IC50 (second compound 10 µM): < 0.0316 µM | viability, T/C [1]: 104% | viability, T/C [2]: 89.9% | viability, T/C [3]: 104% | viability, T/C [4]: 107% | viability, T/C [5]: 99.3% | viability, T/C [6]: 122% | viability, T/C [7]: 75.8% | viability, T/C [8]: 69.7% | viability, T/C [9]: 77.2% | viability, T/C [10]: 76% | viability, T/C [11]: 78.8% | viability, T/C [12]: 71.8% | viability, T/C [13]: 55.6% | viability, T/C [14]: 52% | viability, T/C [15]: 50.4% | viability, T/C [16]: 52.2% | viability, T/C [17]: 63.3% | viability, T/C [18]: 60.9% | viability, T/C [19]: 42.9% | viability, T/C [20]: 41.6% | viability, T/C [21]: 42.8% | viability, T/C [22]: 41.8% | viability, T/C [23]: 49.2% | viability, T/C [24]: 38.4% | viability, T/C [25]: 30.5% | viability, T/C [26]: 31.4% | viability, T/C [27]: 41% | viability, T/C [28]: 31.8% | viability, T/C [29]: 35.6% | viability, T/C [30]: 38.4% | viability, T/C [31]: 31.8% | viability, T/C [32]: 29.8% | viability, T/C [33]: 33.9% | viability, T/C [34]: 33.1% | viability, T/C [35]: 35.4% | viability, T/C [36]: 32.1%

O=C(c1cc(Cc2n[nH]c(=O)c3ccccc23)ccc1F)N1CCN(C(=O)C2CC2)CC1 + Cc1cnc(CNC(=O)c2c(=O)c3ccc(N4CCCN(C)CC4)nc3n3c2sc2ccccc23)cn1
IC50 (second compound 0.0316 µM): > 10 µM | IC50 (second compound 0.1 µM): > 10 µM | IC50 (second compound 0.316 µM): 0.76 µM | IC50 (second compound 1 µM): < 0.0316 µM | IC50 (second compound 3.16 µM): < 0.0316 µM | IC50 (second compound 10 µM): < 0.0316 µM | viability, T/C [1]: 108% | viability, T/C [2]: 98.9% | viability, T/C [3]: 101% | viability, T/C [4]: 95.5% | viability, T/C [5]: 85.4% | viability, T/C [6]: 68.1% | viability, T/C [7]: 80.9% | viability, T/C [8]: 71.1% | viability, T/C [9]: 65.8% | viability, T/C [10]: 65.3% | viability, T/C [11]: 61.8% | viability, T/C [12]: 51.8% | viability, T/C [13]: 49.5% | viability, T/C [14]: 57.8% | viability, T/C [15]: 58.6% | viability, T/C [16]: 48.3% | viability, T/C [17]: 45% | viability, T/C [18]: 42% | viability, T/C [19]: 40.6% | viability, T/C [20]: 40.6% | viability, T/C [21]: 43.6% | viability, T/C [22]: 35.7% | viability, T/C [23]: 38% | viability, T/C [24]: 34.7% | viability, T/C [25]: 32% | viability, T/C [26]: 36.7% | viability, T/C [27]: 43% | viability, T/C [28]: 31.4% | viability, T/C [29]: 30.8% | viability, T/C [30]: 32.7% | viability, T/C [31]: 26.9% | viability, T/C [32]: 30.4% | viability, T/C [33]: 30.5% | viability, T/C [34]: 29.2% | viability, T/C [35]: 30.2% | viability, T/C [36]: 24.8%
